Source: ChEMBL document CHEMBL1909046, “DrugMatrix in vitro pharmacology data”

Tests used:
Cytochrome P450 2C19 = Cytochrome P450 2C19 (Homo sapiens, UniProt P33261); conditions: bti-tn-5b1-4; note: in other assays of this panel Not Active means under 50% inhibition at 10 µM
Substance-K receptor = target: T1, Substance-K receptor (Homo sapiens, UniProt P21452); format: cell membranes, CHO, Membrane; conditions: cho; note: in other assays of this panel Not Active means under 50% inhibition at 10 µM
T1 sequence (P21452 whole entry): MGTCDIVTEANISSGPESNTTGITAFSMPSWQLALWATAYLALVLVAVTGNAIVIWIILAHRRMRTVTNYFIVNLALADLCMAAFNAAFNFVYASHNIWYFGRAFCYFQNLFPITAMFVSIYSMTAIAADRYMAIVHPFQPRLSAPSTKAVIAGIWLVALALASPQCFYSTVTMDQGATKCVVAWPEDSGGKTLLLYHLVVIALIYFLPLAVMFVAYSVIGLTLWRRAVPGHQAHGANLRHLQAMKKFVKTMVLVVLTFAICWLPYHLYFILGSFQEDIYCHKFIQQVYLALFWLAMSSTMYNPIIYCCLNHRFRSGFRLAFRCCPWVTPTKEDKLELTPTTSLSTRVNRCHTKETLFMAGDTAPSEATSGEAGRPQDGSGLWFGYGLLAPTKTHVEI

[1] = target: Kappa-type opioid receptor (Homo sapiens, UniProt P41145); assay: DRUGMATRIX: Opiate kappa (OP2, KOP) radioligand binding (ligand: [3H] Diprenorphine); format: cell membranes, HEK293, Membrane; conditions: hek293; Not Active = under 50% inhibition at 10 µM
[2] = target: 5-hydroxytryptamine receptor 1B (Rattus norvegicus, UniProt P28564); format: cell membranes, Wistar, Cerebral cortex, Membrane; note: in other assays of this panel Not Active means under 50% inhibition at 10 µM
[3] = target: Voltage-gated inwardly rectifying potassium channel KCNH2 (Homo sapiens, UniProt Q12809); conditions: hek293; note: in other assays of this panel Not Active means under 50% inhibition at 10 µM
[4] = DRUGMATRIX: Platelet-Derived Growth Factor (PDGF) radioligand binding (ligand: [125I] PDGF); format: cell-based; conditions: nih3t3; Not Active = under 50% inhibition at 10 µM

Sequence of Cytochrome P450 2C19 (P33261 whole entry): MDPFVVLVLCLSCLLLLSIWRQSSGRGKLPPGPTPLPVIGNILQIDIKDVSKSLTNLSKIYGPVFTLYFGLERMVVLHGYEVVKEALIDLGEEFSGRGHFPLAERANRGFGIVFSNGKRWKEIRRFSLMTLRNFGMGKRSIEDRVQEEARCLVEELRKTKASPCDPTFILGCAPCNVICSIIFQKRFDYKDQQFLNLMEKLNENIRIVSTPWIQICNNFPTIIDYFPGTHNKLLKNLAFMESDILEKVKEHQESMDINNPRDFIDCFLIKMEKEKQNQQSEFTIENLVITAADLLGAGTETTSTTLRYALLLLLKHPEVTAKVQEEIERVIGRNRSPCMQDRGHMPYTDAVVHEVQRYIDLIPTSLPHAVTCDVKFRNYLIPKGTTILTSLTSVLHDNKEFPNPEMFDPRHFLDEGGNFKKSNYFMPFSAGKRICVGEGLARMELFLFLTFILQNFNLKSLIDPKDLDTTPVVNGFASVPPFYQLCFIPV
Sequence of Voltage-gated inwardly rectifying potassium channel KCNH2 (Q12809 whole entry): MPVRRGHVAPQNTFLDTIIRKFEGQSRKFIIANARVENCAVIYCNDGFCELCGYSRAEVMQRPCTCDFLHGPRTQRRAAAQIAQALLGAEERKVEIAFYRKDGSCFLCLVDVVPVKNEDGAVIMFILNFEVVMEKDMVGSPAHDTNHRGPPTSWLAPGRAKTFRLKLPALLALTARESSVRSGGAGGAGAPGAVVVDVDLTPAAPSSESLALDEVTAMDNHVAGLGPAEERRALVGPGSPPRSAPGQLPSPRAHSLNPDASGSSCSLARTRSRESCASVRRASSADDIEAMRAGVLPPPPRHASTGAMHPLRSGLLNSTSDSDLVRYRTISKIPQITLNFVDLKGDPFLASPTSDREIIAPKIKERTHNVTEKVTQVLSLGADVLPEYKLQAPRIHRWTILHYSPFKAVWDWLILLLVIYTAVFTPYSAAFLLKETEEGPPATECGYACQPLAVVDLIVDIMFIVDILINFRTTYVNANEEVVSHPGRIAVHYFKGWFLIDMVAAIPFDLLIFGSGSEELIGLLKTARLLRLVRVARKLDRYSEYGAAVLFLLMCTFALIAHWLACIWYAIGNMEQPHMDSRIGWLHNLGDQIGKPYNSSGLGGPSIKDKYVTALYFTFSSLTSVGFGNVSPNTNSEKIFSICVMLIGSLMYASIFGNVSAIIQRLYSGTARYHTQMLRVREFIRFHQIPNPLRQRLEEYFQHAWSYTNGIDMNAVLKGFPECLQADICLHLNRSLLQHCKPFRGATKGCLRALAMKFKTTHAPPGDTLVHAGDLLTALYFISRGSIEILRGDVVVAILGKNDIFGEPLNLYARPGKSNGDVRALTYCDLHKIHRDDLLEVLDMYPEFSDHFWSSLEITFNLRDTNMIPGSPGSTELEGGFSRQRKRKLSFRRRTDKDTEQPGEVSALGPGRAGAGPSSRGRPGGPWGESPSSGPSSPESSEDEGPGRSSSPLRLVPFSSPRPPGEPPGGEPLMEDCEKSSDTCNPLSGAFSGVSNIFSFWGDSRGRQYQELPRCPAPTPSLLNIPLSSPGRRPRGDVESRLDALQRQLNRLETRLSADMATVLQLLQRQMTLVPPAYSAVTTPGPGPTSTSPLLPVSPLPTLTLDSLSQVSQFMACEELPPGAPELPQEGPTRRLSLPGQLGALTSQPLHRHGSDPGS
Sequence of Kappa-type opioid receptor (P41145 whole entry): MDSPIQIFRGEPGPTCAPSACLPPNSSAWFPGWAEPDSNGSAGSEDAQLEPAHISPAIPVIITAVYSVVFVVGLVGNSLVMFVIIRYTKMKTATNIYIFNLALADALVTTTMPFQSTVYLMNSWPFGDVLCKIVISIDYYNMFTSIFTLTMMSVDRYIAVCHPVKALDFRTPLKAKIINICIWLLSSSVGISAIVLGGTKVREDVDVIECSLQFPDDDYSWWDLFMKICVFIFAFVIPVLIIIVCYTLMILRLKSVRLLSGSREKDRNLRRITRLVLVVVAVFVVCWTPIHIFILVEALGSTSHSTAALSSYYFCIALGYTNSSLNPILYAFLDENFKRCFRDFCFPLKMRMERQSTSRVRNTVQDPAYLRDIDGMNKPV
Sequence of 5-hydroxytryptamine receptor 1B (P28564 whole entry): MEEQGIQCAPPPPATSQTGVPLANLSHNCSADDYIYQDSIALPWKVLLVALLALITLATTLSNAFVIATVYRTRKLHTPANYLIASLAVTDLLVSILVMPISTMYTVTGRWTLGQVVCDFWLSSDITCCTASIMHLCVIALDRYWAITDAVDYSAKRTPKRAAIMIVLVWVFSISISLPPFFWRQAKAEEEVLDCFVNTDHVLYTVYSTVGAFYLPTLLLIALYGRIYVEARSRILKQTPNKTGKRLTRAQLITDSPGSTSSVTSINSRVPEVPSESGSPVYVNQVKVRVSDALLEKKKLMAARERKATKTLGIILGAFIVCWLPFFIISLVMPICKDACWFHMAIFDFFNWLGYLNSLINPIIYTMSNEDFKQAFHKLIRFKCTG

O=c1c(-c2ccc(O)cc2)coc2cc(O)cc(O)c12 [GENISTEIN]
Not Active: IC50 (Cytochrome P450 2C19) | Ki (Cytochrome P450 2C19) | IC50 (Substance-K receptor) | IC50 [1] | IC50 [2] | IC50 [3] | Ki [3] | IC50 [4] | Ki [4]

CCC1=C(C)CN(C(=O)NCCc2ccc(S(=O)(=O)NC(=O)N[C@H]3CC[C@H](C)CC3)cc2)C1=O [GLIMEPIRIDE]
Not Active: IC50 (Cytochrome P450 2C19) | Ki (Cytochrome P450 2C19) | IC50 (Substance-K receptor) | IC50 [1] | IC50 [2] | IC50 [3] | Ki [3] | IC50 [4] | Ki [4]

Nc1cc(-c2ccncc2)c[nH]c1=O [INAMRINONE]
Not Active: IC50 (Cytochrome P450 2C19) | Ki (Cytochrome P450 2C19) | IC50 (Substance-K receptor) | IC50 [1] | IC50 [2] | IC50 [3] | Ki [3] | IC50 [4] | Ki [4]

CCCCC1=NC2(CCCC2)C(=O)N1Cc1ccc(-c2ccccc2-c2nnn[nH]2)cc1 [IRBESARTAN]
Not Active: IC50 (Cytochrome P450 2C19) | Ki (Cytochrome P450 2C19) | IC50 (Substance-K receptor) | IC50 [1] | IC50 [2] | IC50 [3] | Ki [3] | IC50 [4] | Ki [4]

CN1CCC(=C2c3ccccc3CC(=O)c3sccc32)CC1 [KETOTIFEN]
Not Active: IC50 (Cytochrome P450 2C19) | Ki (Cytochrome P450 2C19) | IC50 (Substance-K receptor) | IC50 [1] | IC50 [2] | IC50 [3] | Ki [3] | IC50 [4] | Ki [4]

C[C@H]1COc2c(N3CCN(C)CC3)c(F)cc3c(=O)c(C(=O)O)cn1c23.C[C@H]1COc2c(N3CCN(C)CC3)c(F)cc3c(=O)c(C(=O)O)cn1c23.O [LEVOFLOXACIN]
Not Active: IC50 (Cytochrome P450 2C19) | Ki (Cytochrome P450 2C19) | IC50 (Substance-K receptor) | IC50 [1] | IC50 [2] | IC50 [3] | Ki [3] | IC50 [4] | Ki [4]

CN1CCCC(CN2c3ccccc3Sc3ccccc32)C1 (stereo not given) [MEPAZINE]
Not Active: IC50 (Cytochrome P450 2C19) | Ki (Cytochrome P450 2C19) | IC50 (Substance-K receptor) | IC50 [1] | IC50 [2] | IC50 [3] | Ki [3] | IC50 [4] | Ki [4]

Cc1cccc(C)c1NC(=O)C1CCCCN1C (stereo not given) [MEPIVACAINE]
Not Active: IC50 (Cytochrome P450 2C19) | Ki (Cytochrome P450 2C19) | IC50 (Substance-K receptor) | IC50 [1] | IC50 [2] | IC50 [3] | Ki [3] | IC50 [4] | Ki [4]

CN(C)C(=N)NC(=N)N [METFORMIN]
Not Active: IC50 (Cytochrome P450 2C19) | Ki (Cytochrome P450 2C19) | IC50 (Substance-K receptor) | IC50 [1] | IC50 [2] | IC50 [3] | Ki [3] | IC50 [4] | Ki [4]

CC(C)(C)NCC(O)COc1cccc2c1CC(O)C(O)C2 (stereo not given) [NADOLOL]
Not Active: IC50 (Cytochrome P450 2C19) | Ki (Cytochrome P450 2C19) | IC50 (Substance-K receptor) | IC50 [1] | IC50 [2] | IC50 [3] | Ki [3] | IC50 [4] | Ki [4]

NC(=O)c1cccnc1 [NIACINAMIDE]
Not Active: IC50 (Cytochrome P450 2C19) | Ki (Cytochrome P450 2C19) | IC50 (Substance-K receptor) | IC50 [1] | IC50 [2] | IC50 [3] | Ki [3] | IC50 [4] | Ki [4]

CS(=O)(=O)Nc1ccc([N+](=O)[O-])cc1Oc1ccccc1 [NIMESULIDE]
Not Active: IC50 (Cytochrome P450 2C19) | Ki (Cytochrome P450 2C19) | IC50 (Substance-K receptor) | IC50 [1] | IC50 [2] | IC50 [3] | Ki [3] | IC50 [4] | Ki [4]

CN1C(=O)CN=C(c2ccccc2)c2cc([N+](=O)[O-])ccc21 [NIMETAZEPAM]
Not Active: IC50 (Cytochrome P450 2C19) | Ki (Cytochrome P450 2C19) | IC50 (Substance-K receptor) | IC50 [1] | IC50 [2] | IC50 [3] | Ki [3] | IC50 [4] | Ki [4]

NC(=O)N1c2ccccc2CC(=O)c2ccccc21 [OXCARBAZEPINE]
Not Active: IC50 (Cytochrome P450 2C19) | Ki (Cytochrome P450 2C19) | IC50 (Substance-K receptor) | IC50 [1] | IC50 [2] | IC50 [3] | Ki [3] | IC50 [4] | Ki [4]

COc1ccnc(C[S+]([O-])c2nc3ccc(OC(F)F)cc3[nH]2)c1OC (stereo not given) [PANTOPRAZOLE]
Not Active: IC50 (Cytochrome P450 2C19) | Ki (Cytochrome P450 2C19) | IC50 (Substance-K receptor) | IC50 [1] | IC50 [2] | IC50 [3] | Ki [3] | IC50 [4] | Ki [4]

CCc1ccc(CCOc2ccc(CC3SC(=O)NC3=O)cc2)nc1 (stereo not given) [PIOGLITAZONE]
Not Active: IC50 (Cytochrome P450 2C19) | Ki (Cytochrome P450 2C19) | IC50 (Substance-K receptor) | IC50 [1] | IC50 [2] | IC50 [3] | Ki [3] | IC50 [4] | Ki [4]

CCCNC(C)C(=O)Nc1ccccc1C (stereo not given) [PRILOCAINE]
Not Active: IC50 (Cytochrome P450 2C19) | Ki (Cytochrome P450 2C19) | IC50 (Substance-K receptor) | IC50 [1] | IC50 [2] | IC50 [3] | Ki [3] | IC50 [4] | Ki [4]

CCN(CC)CCCC(C)Nc1c2ccc(Cl)cc2nc2ccc(OC)cc12 (stereo not given) [QUINACRINE]
Not Active: IC50 (Cytochrome P450 2C19) | Ki (Cytochrome P450 2C19) | IC50 (Substance-K receptor) | IC50 [1] | IC50 [2] | IC50 [3] | Ki [3] | IC50 [4] | Ki [4]

CC[C@]1(O)C[C@@H]2CN(CCc3c([nH]c4ccccc34)[C@@](C(=O)OC)(c3cc4c(cc3OC)N(C)[C@H]3[C@@](O)(C(N)=O)[C@H](O)[C@]5(CC)C=CCN6CC[C@]43[C@@H]65)C2)C1 [VINDESINE]
Not Active: IC50 (Cytochrome P450 2C19) | Ki (Cytochrome P450 2C19) | IC50 (Substance-K receptor) | IC50 [1] | IC50 [2] | IC50 [3] | Ki [3] | IC50 [4] | Ki [4]

CCN(C(C)=O)c1cccc(-c2ccnc3c(C#N)cnn23)c1 [ZALEPLON]
Not Active: IC50 (Cytochrome P450 2C19) | Ki (Cytochrome P450 2C19) | IC50 (Substance-K receptor) | IC50 [1] | IC50 [2] | IC50 [3] | Ki [3] | IC50 [4] | Ki [4]
